Data on 26 compounds can be found in US11040958B2, “Triazole antimicrobial derivative, pharmaceutical composition and use thereof” (priority 2017, dated 2021).

Data set [1] can be described thus: Solid stability test (25°C, RH 60%, 30 days). Format: physicochemical. The following applies: 25°C±2°C, relative humidity 60%±2%. The method, then:
Experimental conditions: 25° C.±2° C., relative humidity 60%±2%
Experimental instrument: Agilent 1260 HPLC; chamber for stability test
Experimental method: each compound of the present disclosure was packaged (the inner packaging material was a penicillin bottle; the outer packaging material was a double-layer aluminum foil bag, and a desiccant was added inside and outside the package), placed in the chamber for stability test, at a temperature of 25° C.±2° C. and a relative humidity of 60%±2%. The degradation situation of the compounds for 30 days was examined. The contents of total impurities before and after 30 days of each compound were compared and the results were as follows: […]

A short description of data set [2]: Solubility test in deionized water (HPLC, external calibration). The note with it: for solubility at 30 min: 25 °C, thermodynamic from solid. Type of data set: physicochemical. The method, then:
Experimental condition: 25±2° C.
Dissolving medium: deionized water
Experimental method: 1 mg voriconazole and appropriate amount of each compound were weighed, placed in 1 ml deionized water separately, shaken vigorously for 30 s every 5 mins for 30 mins.

Data set [3] can be described thus: Pharmacokinetics after single intravenous administration in rats (plasma voriconazole). The note with it: for T1/2 / AUClast: rat, in vivo, 2.5 mg/kg. The method, then: Dosage for administration: 2.5 mg/kg (calculated as voriconazole)
Dosing volume for administration: 2.5 ml/kg
Drug concentration: 1 mg/mL (calculated as voriconazole)
Route of administration: tail vein injection Experimental animals: SD rats, SPF grade, weighing 180-220 g, half male and half female; the SD rats were randomized into groups of 6 animals each, three males and three females in each group. Experimental method: Blood samples were collected at different time points after tail vein administration, and the plasma concentrations of voriconazole were measured.

In data set [4] the test system is Candida albicans ATCC10231. In words: Systemic fungal infection in mice, intravenous administration, survival. Format: in vivo. The note with it: ICR mice, tail vein, 5 mg/kg (calculated as voriconazole) once daily for 5 days. The method, then:
ICR mice, weighing 18-22 g, male, provided by the Hubei Experimental Animal Center.
The standard strain Candida albicans was purchased from the American Type Culture Collection, and the strain number was ATCC10231.
Before the experiment, a small amount of Candida albicans was picked from the SDA medium preserved at 4° C. by inoculation circle, and inoculated into 1 ml YPD (Yeast Extract Peptone Dextrose Medium, the same below) culture medium, under shake cultivation at 30° C., 200 rpm, activated for 16 hours to make the fungus in the late stage of the exponential growth phase. Blood cell counting plate was used to count. The concentration of the broth was adjusted to 1*10^3-5*10^3 CFU/ml with RPMI1640 (Roswell Park Memorial Institute 1640, the same below) culture medium. The Candida albicans monoclone on the SDA plate was picked and inoculated into 1 ml YPD medium, cultured at 35° C., 200 rpm for 16 hours to the late exponential growth phase, 1% of which was then inoculated in fresh medium for 6 hours, centrifuged at 1000×g for 5 mins, washed three times with saline until the supernatant was colorless, while hemocytometer was used to count. The cell concentration was adjusted to 5*10^6/ml. The tail vein injection of 0.1 ml/10 g was carried out to cause a systemic fungal infection in mice. The mice were randomized into groups of 10 each. Since voriconazole was insoluble in vehicle (physiological saline), the mice of the voriconazole group in the test were injected a commercially available voriconazole (Pfizer, product lot number Z467001), that is, sulfobutyl ether-β-cyclodextrin used as a solubilizer, while other groups used physiological saline as a solvent. After establishing a systemic fungal infection model in mice for 2 hours, each administration group was administered with 5 mg/kg (calculated as voriconazole) drug in the tail vein, with the volume for administration of 0.1 ml/10 g. The mice in the model group were administered 0.1 ml/10 g of 0.9% sodium chloride solution, once daily, for 5 consecutive days. The death situation of the mice was inspected and the survival time was recorded. After a total of 7 days of observation, all dead mice were treated with fire using ethanol.

Like-named read-outs stand apart in the source and are kept apart here. Where only a bound is given, the exact number is not on record here.

For `CC(OC(=O)OCCS)[n+]1cnn(C[C@](O)(c2ccc(F)cc2F)[C@@H](C)c2ncncc2F)c1` (some centres unmarked) [Compound 16031], the “Content increase of total impurity (25° C., placed for 30 days)” value (from here on “Content increase of total impurity”) in data set [1] was 0.97%.

In data set [2] (deionized water, 25±2°C), `CC(OC(=O)N(C)c1ncccc1COC(=O)C[C@H](N)C(=O)O)[n+]1cnn(C[C@](O)(c2ccc(F)cc2F)[C@@H](C)c2ncncc2F)c1.[Cl-]` (some centres unmarked) [QR16003] came in with a Solubility above 50 mg/mL. Besides, the T1/2 result in data set [3] was “similar”. Further, in data set [1], the “Content increase of total impurity” value was 1.37%.

In turn, `CC(OC(=O)N(C)c1ncccc1COC(=O)CCC(=O)[O-])[n+]1cnn(C[C@](O)(c2ccc(F)cc2F)[C@@H](C)c2ncncc2F)c1.[Cl-].[Na+]` (some centres unmarked) [QR16004] gave a Solubility in data set [2] (deionized water, 25±2°C) above 50 mg/mL. For the same compound, the “survival rate of mice, day 1” value in data set [4] (day 1) is reported as 100%. Further, the “survival rate of mice, day 2” value in data set [4] (day 2) was 100%. Besides, the “survival rate of mice, day 3” value in data set [4] (day 3) is listed as 100%. The “survival rate of mice, day 4” value in data set [4] (day 4) was 90%. The “survival rate of mice, day 5” value in data set [4] (day 5) is on record as 90%. In addition, the “survival rate of mice, day 6” value in data set [4] (day 6) is listed as 80%. The same compound gave an AUClast in data set [3] of 9586 ± 2352 ng·h/mL.

Consider `CC(OC(=O)N(C)c1ncccc1COC(=O)[C@@H](N)CCCN)[n+]1cnn(C[C@](O)(c2ccc(F)cc2F)[C@@H](C)c2ncncc2F)c1.Cl.Cl.Cl.[I-]` (some centres unmarked) [QR16006], for which the Solubility in data set [2] (deionized water, 25±2°C) is above 50 mg/mL. The “Content increase of total impurity” value in data set [1] worked out at 1.14%.

Compound `CC(OC(=O)N(C)c1ncccc1COC(=O)[C@@H](N)CCCN)[n+]1cnn(C[C@](O)(c2ccc(F)cc2F)[C@@H](C)c2ncncc2F)c1.O=P([O-])(O)O` (some centres unmarked) [QR16011] showed a Solubility in data set [2] (deionized water, 25±2°C) above 50 mg/mL. The “Content increase of total impurity” value in data set [1] amounted to 0.96%.

In the case of `CC(OC(=O)N(C)c1ncccc1COC(=O)[C@@H](N)CCCN)[n+]1cnn(C[C@](O)(c2ccc(F)cc2F)[C@@H](C)c2ncncc2F)c1.O=[N+]([O-])[O-]` (some centres unmarked) [QR16012], the Solubility in data set [2] (deionized water, 25±2°C) is listed as above 50 mg/mL. In data set [1], the “Content increase of total impurity” value is recorded as 0.92%.

Take `CC(OC(=O)N(C)c1ncccc1COC(=O)C(N)Cc1ccc(O)cc1)[n+]1cnn(CC(O)(c2ccc(F)cc2F)C(C)c2ncncc2F)c1.Cl.Cl.[Cl-]` (centres unmarked) [QR16018]: the Solubility in data set [2] (deionized water, 25±2°C) was above 50 mg/mL. In addition, the “Content increase of total impurity” value in data set [1] is 1.15%.

`CNCCC[C@H](N)C(=O)OCc1cccnc1N(C)C(=O)OC(C)[n+]1cnn(C[C@](O)(c2ccc(F)cc2F)[C@@H](C)c2ncncc2F)c1.[Cl-]` (some centres unmarked) [QR16019] registered a Solubility in data set [2] (deionized water, 25±2°C) above 50 mg/mL. In data set [1], the “Content increase of total impurity” value stood at 0.88%.

In the case of `CNCC[C@H](N)C(=O)OCc1cccnc1N(C)C(=O)OC(C)[n+]1cnn(C[C@](O)(c2ccc(F)cc2F)[C@@H](C)c2ncncc2F)c1` (some centres unmarked) [QR16021], the solubility at 30 min in data set [2] (deionized water, 25±2°C) is above 50 mg/mL. In data set [3] (both, SD, iv), this compound displayed an AUClast of 7056 ± 2532 ng·h/mL. Besides, the “Content increase of total impurity” value in data set [1] turned out to be 1.14%.

Compound `CC(OC(=O)OCCCCOP(=O)(O)O)[n+]1cnn(C[C@](O)(c2ccc(F)cc2F)[C@@H](C)c2ncncc2F)c1` (some centres unmarked) [QR16024] yielded a Solubility in data set [2] (deionized water, 25±2°C) above 50 mg/mL. For the same compound, in data set [3], the T1/2 entry is “similar”. Further, the “Content increase of total impurity” value in data set [1] stood at 2.84%.

As to `CC(OC(=O)OCCCCCOP(=O)(O)O)[n+]1cnn(C[C@](O)(c2ccc(F)cc2F)[C@@H](C)c2ncncc2F)c1` (some centres unmarked) [QR16025], the Solubility in data set [2] (deionized water, 25±2°C) is reported as above 50 mg/mL. Further, the T1/2 result in data set [3] is on record as “similar”. In data set [1], the “Content increase of total impurity” value amounted to 1.57%.

`CC(OC(=O)OCCOCCOCCOP(=O)(O)O)[n+]1cnn(C[C@](O)(c2ccc(F)cc2F)[C@@H](C)c2ncncc2F)c1` (some centres unmarked) [QR16033] returned a Solubility in data set [2] (deionized water, 25±2°C) above 50 mg/mL. Moreover, in data set [3], the T1/2 entry is “similar”.

`CC(OC(=O)SC[C@H](N)C(=O)O)[n+]1cnn(C[C@](O)(c2ccc(F)cc2F)[C@@H](C)c2ncncc2F)c1` (some centres unmarked) [QR16034] returned a Solubility in data set [2] of 12.5 mg/mL. Besides, the T1/2 entry in data set [3] is recorded as “similar”.

As for `CC(OC(=O)NCC(=O)O)[n+]1cnn(C[C@](O)(c2ccc(F)cc2F)[C@@H](C)c2ncncc2F)c1` (some centres unmarked) [QR16038], the T1/2 entry in data set [3] is “similar”.

For the compound `CC(OC(=O)NCC[C@H](N)C(=O)O)[n+]1cnn(C[C@](O)(c2ccc(F)cc2F)[C@@H](C)c2ncncc2F)c1.Cl.[Cl-]` (some centres unmarked) [QR16039], the T1/2 entry in data set [3] is on record as “similar”. In addition, the “Content increase of total impurity” value in data set [1] came out at 1.22%.

On to `C[C@@H](c1ncncc1F)[C@](O)(Cn1c[n+](CC(=O)O)cn1)c1ccc(F)cc1F` [QR16043], for which the T1/2 result in data set [3] was “similar”.

As for `CC(OC(=O)OCCOP(=O)(O)O)[n+]1cnn(C[C@](O)(c2ccc(F)cc2F)[C@@H](C)c2ncncc2F)c1` (some centres unmarked) [QR16046], the solubility at 30 min in data set [2] (deionized water, 25±2°C) was above 50 mg/mL. Besides, in data set [1], the “Content increase of total impurity” value was 0.79%.

`CC(OC(=O)N(C)c1ncccc1COC(=O)CN)[n+]1cnn(C[C@](O)(c2ccc(F)cc2F)[C@@H](C)c2ncncc2F)c1.O=S(=O)([O-])O` (some centres unmarked) [SF16001] had a Solubility in data set [2] (deionized water, 25±2°C) above 50 mg/mL. Moreover, the “Content increase of total impurity” value in data set [1] is listed as 0.37%.

Consider `CC(OC(=O)N(C)c1ncccc1COC(=O)[C@@H](N)CCCN)[n+]1cnn(C[C@](O)(c2ccc(F)cc2F)[C@@H](C)c2ncncc2F)c1` (some centres unmarked) [SF16002], for which, in data set [2] (deionized water, 25±2°C), the solubility at 30 min is above 50 mg/mL. Further, the “Content increase of total impurity” value in data set [1] is on record as 0.67%.

Regarding `CC(OC(=O)N(C)c1ncccc1COC(=O)[C@@H](N)CCC(N)=O)[n+]1cnn(C[C@](O)(c2ccc(F)cc2F)[C@@H](C)c2ncncc2F)c1.O=S(=O)([O-])O` (some centres unmarked) [SF16013], in data set [1], the “Content increase of total impurity” value is on record as 0.48%.

Regarding `CC(OC(=O)N(C)c1ncccc1COC(=O)[C@@H](N)CC(N)=O)[n+]1cnn(C[C@](O)(c2ccc(F)cc2F)[C@@H](C)c2ncncc2F)c1.O=S(=O)([O-])O` (some centres unmarked) [SF16014], the “Content increase of total impurity” value in data set [1] is 0.36%.

Regarding `CC(OC(=O)N(C)c1ncccc1COC(=O)[C@@H](N)CO)[n+]1cnn(C[C@](O)(c2ccc(F)cc2F)[C@@H](C)c2ncncc2F)c1.O=S(=O)([O-])O` (some centres unmarked) [SF16015], the “Content increase of total impurity” value in data set [1] is 0.32%.

`CC(OC(=O)N(C)c1ncccc1COC(=O)[C@@H](N)[C@@H](C)O)[n+]1cnn(C[C@](O)(c2ccc(F)cc2F)[C@@H](C)c2ncncc2F)c1.O=S(=O)([O-])O` (some centres unmarked) [SF16016]: the “Content increase of total impurity” value in data set [1] amounted to 0.49%.

Take `CC(OC(=O)N(C)c1ncccc1COC(=O)[C@@H](N)CCCCN)[n+]1cnn(C[C@](O)(c2ccc(F)cc2F)[C@@H](C)c2ncncc2F)c1` (some centres unmarked) [SF16017]: the “Content increase of total impurity” value in data set [1] is recorded as 0.46%.

For `CNCC(=O)OCc1cccnc1N(C)C(=O)OC(C)[n+]1cnn(C[C@](O)(c2ccc(F)cc2F)[C@@H](C)c2ncncc2F)c1.O=S(=O)([O-])O` (some centres unmarked) [SF16020], the “Content increase of total impurity” value in data set [1] amounted to 0.62%.

As for `C[C@@H](c1ncncc1F)[C@](O)(Cn1cncn1)c1ccc(F)cc1F` [Voriconazole, reference compound], in data set [2] (deionized water, 25±2°C), the solubility at 30 min is below 1 mg/mL. The “plasma concentration of voriconazole” value in data set [3] (control group of voriconazole dissolved in physiological saline, tail vein injection, SD rats) is recorded as “not detected”.

The term Solubility denotes how much of the substance goes into solution per volume. The term solubility denotes how much of the substance goes into solution per volume. Low readings indicate little dissolved substance, high ones much dissolved substance.
